Laboratory results published in patent US20030114445A1, “N3-substituted 6-anilinopyrimidines and methods to treat-Gram-positive bacterial and mycoplasmal infections” (priority 2001, published 2003).
pKi: −log10 of the molar value. In brackets after ≈: the same amount, converted by molar mass. Where two headings read alike, the source gives them in different places.

Experiments:
S. aureus (Smith strain) [1] = assay: Efficacy, ip dosing of mice infected with S. aureus; type: in vivo; details: suspensions in saline, 5 animals, FIG. 2
Text: Compounds 12, 19, 26, and 29 were given by the intraperitoneal (ip) route as suspensions in saline to mice previously infected with S. aureus (Smith strain). Vancomycin was used as a positive drug control and saline was used as a negative vehicle control.

B.subtilis pol IIIC = B.subtilis pol IIIC (Bacillus subtilis, UniProt P13267); assay: biochemical
B.subtilis pol IIIC, sequence (P13267 whole entry): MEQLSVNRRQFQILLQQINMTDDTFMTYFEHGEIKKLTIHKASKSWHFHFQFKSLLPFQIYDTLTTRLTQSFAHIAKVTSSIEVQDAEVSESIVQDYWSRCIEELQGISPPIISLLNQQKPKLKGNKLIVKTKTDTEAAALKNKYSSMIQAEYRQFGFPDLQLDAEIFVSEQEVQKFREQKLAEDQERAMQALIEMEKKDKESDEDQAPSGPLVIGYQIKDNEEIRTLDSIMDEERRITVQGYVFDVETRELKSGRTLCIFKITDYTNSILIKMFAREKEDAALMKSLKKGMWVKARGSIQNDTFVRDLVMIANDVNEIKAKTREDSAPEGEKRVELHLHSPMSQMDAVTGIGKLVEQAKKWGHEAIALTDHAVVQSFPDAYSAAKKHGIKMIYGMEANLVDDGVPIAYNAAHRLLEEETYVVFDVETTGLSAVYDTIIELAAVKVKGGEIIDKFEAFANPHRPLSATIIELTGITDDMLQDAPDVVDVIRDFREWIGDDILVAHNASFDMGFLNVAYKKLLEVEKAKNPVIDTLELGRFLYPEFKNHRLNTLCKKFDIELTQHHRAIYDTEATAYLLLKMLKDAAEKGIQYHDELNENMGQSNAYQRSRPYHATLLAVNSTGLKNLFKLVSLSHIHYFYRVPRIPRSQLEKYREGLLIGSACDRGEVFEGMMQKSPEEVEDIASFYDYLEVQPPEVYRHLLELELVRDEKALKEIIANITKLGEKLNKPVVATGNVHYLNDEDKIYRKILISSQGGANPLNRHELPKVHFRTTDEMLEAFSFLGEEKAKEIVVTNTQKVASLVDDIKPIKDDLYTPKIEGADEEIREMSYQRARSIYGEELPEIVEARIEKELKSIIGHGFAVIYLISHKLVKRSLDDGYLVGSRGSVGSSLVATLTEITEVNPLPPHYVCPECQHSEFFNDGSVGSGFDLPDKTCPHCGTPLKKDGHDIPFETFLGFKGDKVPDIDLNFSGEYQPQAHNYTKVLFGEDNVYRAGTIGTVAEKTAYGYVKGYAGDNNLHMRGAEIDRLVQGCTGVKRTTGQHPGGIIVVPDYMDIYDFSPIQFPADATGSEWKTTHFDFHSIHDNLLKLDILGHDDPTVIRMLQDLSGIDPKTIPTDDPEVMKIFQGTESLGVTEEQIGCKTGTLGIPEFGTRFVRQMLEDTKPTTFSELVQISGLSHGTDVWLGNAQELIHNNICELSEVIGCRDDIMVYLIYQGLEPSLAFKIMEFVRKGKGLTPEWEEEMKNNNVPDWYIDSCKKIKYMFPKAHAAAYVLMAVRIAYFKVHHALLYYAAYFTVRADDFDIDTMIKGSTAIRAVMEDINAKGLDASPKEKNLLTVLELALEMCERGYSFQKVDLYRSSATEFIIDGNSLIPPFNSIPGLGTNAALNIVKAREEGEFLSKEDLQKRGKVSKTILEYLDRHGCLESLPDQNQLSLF
Experimental: DNA pol activity was assayed as described in Barnes et al., Nuc. Acids Res., 6:1203-19 (1979), using activated “nicked” calf-thymus DNA as template primer, 10 pM [^3H-methyl]-dTTP as the labelled dNTP substrate, and dATP, dCTP, and dGTP at 25 μM each.
Inhibitory activity of the compounds is determined by measuring the ability of the agent to inhibit enzyme-catalyzed incorporation of [^3H]-dTMP into nicked calf thymus DNA in the absence of the competitor dGTP or dATP (“truncated assay”) (see G. E. Wright and N. C. Brown, Inhibition of Bacillus subtilis DNA Polymerase III by Arylhydrazinopyrimidines: Novel Properties of 2-Thiouracil Derivatives, Biochim. Biophys. Acta 432:37-48 (1976)). Purified pol IIIC is added to a buffered solution containing Mg^2+, DTT, glycerol, nicked calf thymus DNA, saturating concentrations of dATP, dCTP, dTTP and [^3H]-dTTP. Reaction mixtures are incubated at 30° C. for 10 minutes, quenched and filtered, and radioactivity in the acid-insoluble material measured by scintillation counting. Experiments are done in triplicate. Inhibitors are assayed by addition of several dilutions of a stock solution of inhibitor (DMSO or water, depending on solubility) before enzyme addition. […] The truncated assay, i.e. exclusion of the competitive substrate dGTP or dATP, depending upon whether the compound is a uracil derivative or an isocytosine derivative, respectively, allows for the direct determination of apparent inhibitor constants (K,) in this assay system.

B. subtilis = assay: Inhibition of bacterial growth on agar plates (MIC); type: cell-based; details: Bacillus subtilis, 37° C., 24 hours
Experimental: (§1) Each compound is assayed against a panel of Bacillus, Enterococcus and Staphylococcus, and a Gram-negative bacterium Escherichia coli as negative control, grown in appropriate plate media solidified with 1.3% agar-agar. Stock solutions of the compounds in dimethylsulfoxide or water, depending on solubility, are added to sterile medium at a temperature of 60° C. […] One tenth mL of diluted bacteria containing 500-1000 colony-forming units (CFU) are plated and spread, and the plates incubated at 37° C. for 24 hours. MIC (minimum inhibitory concentration) is equivalent to the lowest concentration at which growth, i.e. colony formation, is not observed.

E. fecalis = assay: as above; type: cell-based; details: 37° C., 24 hours
Experimental: as §1

E. fecium = assay: as above; type: cell-based; details: 37° C., 24 hours
Experimental: as §1

S.aureus (Smith) = assay: as above; type: cell-based; details: Staphylococcus aureus, 37° C., 24 hours
Experimental: as §1

Water solubility = type: physicochemical; details: 25° C. stated for Compound 35
Text: The compounds described herein have increased water solubility; some of the compounds can form salts, such as with inorganic or organic acids or with alkali metal bases, thus greatly increasing their solubilities. […] The improved water solubilities are a distinct advantage in formulation and in dosing of animals for testing, and for ultimate therapeutic use in humans.

S. aureus (Smith strain) [2] = assay: Efficacy, sc dosing of mice infected ip with S. aureus; type: in vivo; details: Compound 59 given sc, relative to vehicle control, FIG. 3
Text: Compound 59 was give by the sc route to mice infected by the ip route with S. aureus (Smith strain).

| Compound | animals protected (S. aureus (Smith strain) [1]) | pKi (B.subtilis pol IIIC) | MIC (B. subtilis) [µg/mL] | MIC (E. fecalis) [µg/mL] | MIC (E. fecium) [µg/mL] | MIC (S.aureus (Smith)) [µg/mL] | pKi (B.subtilis pol IIIC; truncated assay, apparent inhibitor constant, read-out: K1 B.subtilis pol IIIC) | solubility (Water solubility) [µg/mL] | survival of infected mice (S. aureus (Smith strain) [2]) |
| --- | --- | --- | --- | --- | --- | --- | --- | --- | --- |
| CCc1cc(Nc2cc(=O)n(CCCCCO)c(=O)[nH]2)ccc1C [Compound 26, 3-(5-Hydroxypentyl)-6-(3-ethyl-4-methylanilino)uracil] | 1 of the 5 | – | – | – | – | – | – | – | – |
| CCc1cc(Nc2cc(=O)n(CCOCCO)c(=O)[nH]2)ccc1C [Compound 29, 3-[2-(2-Hydroxyethoxy)ethyl]-6-(3-ethyl-4-methylanilino)uracil] | 4 of the 5 | 6.90 | < 1.25 | 5 (≈ 15 µM) | 5 (≈ 15 µM) | 5 (≈ 15 µM) | – | – | – |
| CCc1cc(Nc2cc(=O)n(CCCCN3CCOCC3)c(=O)[nH]2)ccc1C [Compound 35, 3-[4-(N-morpholino)butyl]-6-(3-ethyl-4-methylanilino)uracil] | – | – | 2.5 (≈ 6.47 µM) | 5 (≈ 12.9 µM) | 2.5 (≈ 6.47 µM) | 5 (≈ 12.9 µM) | 7.32 | < 1000 | – |
| CCCCC1(O)CCN(CCCCCn2c(=O)cc(Nc3ccc(C)c(CC)c3)[nH]c2=O)CC1 [Compound 71, 3-{5-[1-(4-hydroxy-4-butylpiperidinyl)]pentyl}-6-(3-ethyl-4-methylanilino)uracil] | – | 5.68 | 5 (≈ 10.6 µM) | 10 (≈ 21.2 µM) | 10 (≈ 21.2 µM) | 10 (≈ 21.2 µM) | – | – | – |
| CCc1cc(Nc2cc(=O)n(CCCCCN3CC=C(c4cccs4)CC3)c(=O)[nH]2)ccc1C [Compound 72, 3-{5-[1-(4-(thiophen-2-yl)-1,2,3,6-tetrahydropyridinyl)]pentyl}-6-(3-ethyl-4-methylanilino)uracil] | – | 7.11 | 5 (≈ 10.4 µM) | 20 (≈ 41.8 µM) | 40 (≈ 83.6 µM) | 20 (≈ 41.8 µM) | – | – | – |
| CCc1cc(Nc2cc(=O)n(CCCCCN3CC=C(c4cccc5ccsc45)CC3)c(=O)[nH]2)ccc1C [Compound 73, 3-{5-[1-(4-(benzo[b]thiophen-7-yl)-1,2,3,6-tetrahydropyridinyl)]pentyl}-6-(3-ethyl-4-methylanilino)uracil] | – | 7.10 | 10 (≈ 18.9 µM) | > 80 | > 80 | 10 (≈ 18.9 µM) | – | – | – |
| CCc1cc(Nc2cc(=O)n(CCCCNCCCCn3cc(C(=O)O)c(=O)c4cc(F)c(Cl)cc43)c(=O)[nH]2)ccc1C [Compound 74, 3-{4-[4-(3-carboxy-4-oxo-6-fluoro-7-chloroquinoline-1-yl)butylamino]butyl}-6-(3-ethyl-4-methylanilino)uracil] | – | 7.20 | 20 (≈ 32.7 µM) | 20 (≈ 32.7 µM) | 20 (≈ 32.7 µM) | 20 (≈ 32.7 µM) | – | – | – |
| CCc1cc(Nc2cc(=O)n(CCCCCN3CC=C(c4ccc(F)cc4)CC3)c(=O)[nH]2)ccc1C [Compound 75] | – | 7.01 | 5 (≈ 10.2 µM) | 5 (≈ 10.2 µM) | 5 (≈ 10.2 µM) | 5 (≈ 10.2 µM) | – | – | – |
| CCc1cc(Nc2cc(=O)n(CCCCCN3CC=C(c4ccc(Cl)cc4)CC3)c(=O)[nH]2)ccc1C [Compound 76, 3-{5-[1-(4-(4-chlorophenyl)-1,2,3,6-tetrahydropyridinyl)]pentyl}-6-(3-ethyl-4-methylanilino)uracil] | – | 7.06 | 5 (≈ 9.86 µM) | 80 (≈ 158 µM) | 80 (≈ 158 µM) | 5 (≈ 9.86 µM) | – | – | – |
| CCc1cc(Nc2cc(=O)n(CCCCCNC(=O)c3cc4ccccc4s3)c(=O)[nH]2)ccc1C [Compound 77, 3-[5-(2-benzo[b]thiophenecarboxamido)pentyl]-6-(3-ethyl-4-methylanilino)uracil] | – | 6.32 | 80 (≈ 163 µM) | 80 (≈ 163 µM) | 80 (≈ 163 µM) | 80 (≈ 163 µM) | – | – | – |
| CCOC(=O)C1CN(CCCCCn2c(=O)cc(Nc3ccc(C)c(CC)c3)[nH]c2=O)CCC1=O (centres unmarked) [Compound 78, 3-{5-(3-ethoxycarbonyl-4-oxopiperidinyl)pentyl}-6-(3-ethyl-4-methylanilino)uracil] | – | 6.60 | 80 (≈ 165 µM) | 80 (≈ 165 µM) | 80 (≈ 165 µM) | 80 (≈ 165 µM) | – | – | – |
| CCc1cc(Nc2cc(=O)n(CCCCCNC[C@@H]3CCN(C(=O)OC(C)(C)C)C3)c(=O)[nH]2)ccc1C [Compound 79, 3(S)-{5-[(N-tert-butoxycarbonylpyrrolidin-3-yl)methylamino]pentyl}-6-(3-ethyl-4-methylanilino)uracil] | – | 6.92 | 20 (≈ 38.9 µM) | 40 (≈ 77.9 µM) | 40 (≈ 77.9 µM) | 20 (≈ 38.9 µM) | – | – | – |
| CCc1cc(Nc2cc(=O)n(CCCCN3CC=C(c4ccc5c(c4)OCO5)CC3)c(=O)[nH]2)ccc1C [Compound 80, 3-{4-[4-(3,4-dioxomethylenephenyl-1,2,3,6-tetrahydropyridinyl)]butyl}-6-(3-ethyl-4-methylanilino)uracil] | – | 7.62 | 2.5 (≈ 4.97 µM) | 5 (≈ 9.95 µM) | 5 (≈ 9.95 µM) | 10 (≈ 19.9 µM) | – | – | – |
| CCc1cc(Nc2cc(=O)n(CCCCN3CC=C(c4ccc(C)c(C)c4)CC3)c(=O)[nH]2)ccc1C [Compound 81] | – | 7.47 | 1.25 (≈ 2.57 µM) | 10 (≈ 20.5 µM) | 10 (≈ 20.5 µM) | 20 (≈ 41.1 µM) | – | – | – |
| CCc1cc(Nc2cc(=O)n(CCCCN3CC=C(c4ccc(F)c(C)c4)CC3)c(=O)[nH]2)ccc1C [Compound 82] | – | 7.54 | 10 (≈ 20.4 µM) | 20 (≈ 40.8 µM) | 20 (≈ 40.8 µM) | 20 (≈ 40.8 µM) | – | – | – |
| CCc1cc(Nc2cc(=O)n(CCCCO)c(=O)[nH]2)ccc1C [HB-EMAU, 3-(4-hydroxybutyl)-6-(3-ethyl-4-methylanilino)uracil, reference compound] | – | 7.15 | < 1.25 | 5 (≈ 15.8 µM) | 5 (≈ 15.8 µM) | 5 (≈ 15.8 µM) | – | – | – |
| CN[C@H](CC(C)C)C(=O)N[C@H]1C(=O)N[C@@H](CC(N)=O)C(=O)N[C@H]2C(=O)N[C@H]3C(=O)N[C@H](C(=O)N[C@H](C(=O)O)c4cc(O)cc(O)c4-c4cc3ccc4O)[C@H](O)c3ccc(c(Cl)c3)Oc3cc2cc(c3O[C@@H]2O[C@H](CO)[C@@H](O)[C@H](O)[C@H]2O[C@H]2C[C@](C)(N)[C@H](O)[C@H](C)O2)Oc2ccc(cc2Cl)[C@H]1O [Vancomycin, reference compound] | protected all animals | – | – | – | – | – | – | – | protected the animals from this infection |
